Holding throughout (assay type): in vivo
Assay [1] deals with harmful plants such as Stellaria media, Lolium multiflorum, Amaranthus retroflexus, Sinapis alba, Avena sativa and Setaria viridis. Put plainly: Pre-emergence effect on weeds (greenhouse pot test, visual scoring). As to conditions: applied pre-emergence at an application rate of 1 kg or less of active substance per hectare; scored visually after 3 to 4 weeks vs untreated controls. The text has this:
1 Pre-emergence Effect on Weeds
Seeds or rhizome pieces of monocotyledonous and dicotyledonous weeds plants are placed in sandy loam soil in plastic pots and covered with soil. The compounds according to the invention which are formulated in the form of wettable powders or emulsion concentrates are then applied to the surface of the soil cover in the form of an aqueous suspension or emulsion at an application rate of 600 to 800 l of water/ha (converted), in various dosages.

For assay [2], the system named is harmful plants such as Sinapis alba, Echinochloa crus- galli, Lolium multiflorum, Stellaria media, Cyperus iria, Amaranthus retroflexus, Setaria viridis and …. Put plainly: Post-emergence effect on weeds (greenhouse pot test, visual scoring). As to conditions: applied post-emergence (three-leaf stage) at an application rate of 1 kg and less of active substance per hectare; scored visually after about 3 to 4 weeks vs untreated controls. The procedure:
2. Post-emergence Effect on Weeds
Seeds or rhizome pieces of monocotyledonous and dicotyledonous weeds are placed in sandy loam soil in plastic pots, covered with soil and grown in the greenhouse under good growth conditions. Three weeks after sowing, the test plants are treated in the three-leaf stage. The compounds according to the invention which are formulated as wettable powders or as emulsion concentrates are sprayed in various dosages on the green parts of the plants at an application rate of 600 to 800 l of water/ha (converted). After the test plants have remained in the greenhouse for about 3 to 4 weeks under ideal growth conditions, the effect of the preparations is scored visually by comparison with untreated controls. The agents according to the invention also have a good herbicidal post-emergence action against a broad range of economically important grass weeds and dicotyledonous weeds.

The subject of assay [3] is harmful plants which are typical for rice cultivation, such as Cyperus monti, Echinochloa crus-galli and Sagittaria pygmaea. Put plainly: Effect on harmful plants in rice (paddy rice conditions, visual scoring). As to conditions: applied into the flooding water, various dosages, scored visually approximately three weeks after application. How it is done: 3. Effect on Harmful Plants in Rice
Transplanted and seeded rice and typical broad-leaved and monocotyledonous rice weeds are grown in the greenhouse to the three-leaf stage (Echinochloa crus- galli 1.5 leaf) under paddy rice conditions (depth of the water: 2-3 cm) in sealed plastic pots. They are then treated with the compounds according to the invention. To this end, the formulated active substances are suspended, dissolved or emulsified in water and applied in various dosages by pouring into the water with which the test plants are flooded. After this treatment, the test plants are placed in the greenhouse under ideal growth conditions and kept thus over the entire experimental period.
Approximately three weeks after application, the test is evalued by means of visually scoring the damage to the plants by comparison with untreated controls.

As to `CC(C)c1nc(N)nc(NC(CCc2ccccc2)C2CCC2)n1` (stereo not drawn) [Example 4-1], the “herbicidal action against harmful plants, pre-emergence” value (shortened to “herbicidal action … pre-emergence”) in assay [1] is on record as “very good herbicidal action”. Also, the “herbicidal action against harmful plants, post-emergence” value (shortened to “herbicidal action … post-emergence”) in assay [2] is recorded as “very good herbicidal action”. The “herbicidal action against harmful plants typical for rice cultivation” value (“herbicidal action … for rice cultivation” below) in assay [3] was “good herbicidal action”.
As for `CC(C)(F)c1nc(N)nc(NC(CCc2ccccc2)C2CC2)n1` (stereo not drawn) [Example 9-10], the “herbicidal action … pre-emergence” value in assay [1] was “very good herbicidal action”. Besides, in assay [2], the “herbicidal action … post-emergence” value is recorded as “very good herbicidal action”. Besides, the “herbicidal action … for rice cultivation” value in assay [3] is “good herbicidal action”.
Regarding `CC(C)c1nc(N)nc(NC(CCc2ccccc2)C2CC2)n1` (stereo not drawn) [Example 9-9], the “herbicidal action … pre-emergence” value in assay [1] is given as “very good herbicidal action”. Also, the “herbicidal action … post-emergence” value in assay [2] is “very good herbicidal action”. The “herbicidal action … for rice cultivation” value in assay [3] is given as “good herbicidal action”.
As for `Cc1cccc(CCC(Nc2nc(N)nc(C(C)C)n2)C2CCC2)c1` (stereo not drawn) [Example 4-14], in assay [1], the “herbicidal action … pre-emergence” value is “very good herbicidal action”. In addition, the “herbicidal action … post-emergence” value in assay [2] was “very good herbicidal action”. In assay [3], the “herbicidal action … for rice cultivation” value is listed as “good herbicidal action”.
With `CC(C)(F)c1nc(N)nc(NC(CCc2cccc(F)c2)C2CC2)n1` (stereo not drawn) [Example 9-5], the “herbicidal action … pre-emergence” value in assay [1] is listed as “very good herbicidal action”. The “herbicidal action … post-emergence” value in assay [2] is “very good herbicidal action”. For the same molecule, the “herbicidal action … for rice cultivation” value in assay [3] was “good herbicidal action”.
Regarding `COc1cccc(CCC(Nc2nc(N)nc(C(C)C)n2)C2CCC2)c1` (stereo not drawn) [Example 4-23], the “herbicidal action … pre-emergence” value in assay [1] is recorded as “very good herbicidal action”. Moreover, the “herbicidal action … post-emergence” value in assay [2] is recorded as “very good herbicidal action”. The “herbicidal action … for rice cultivation” value in assay [3] is “good herbicidal action”.
For the molecule `CC(C)c1nc(N)nc(NC(CCc2cccc(Cl)c2)C2CC2)n1` (stereo not drawn) [Example 9-7], the “herbicidal action … pre-emergence” value in assay [1] is given as “very good herbicidal action”. In assay [2], the “herbicidal action … post-emergence” value is recorded as “very good herbicidal action”. Moreover, the “herbicidal action … for rice cultivation” value in assay [3] is listed as “good herbicidal action”.
For the molecule `CC(C)(F)c1nc(N)nc(NC(CCc2ccccc2)C2CCC2)n1` (stereo not drawn) [Example 4-2, 2-Amino-4-(1-fluoro-1-methylethyl)-6-(3-phenyl-1-cyclobutyl-1-propylamino)-1,3,5-triazine], the “herbicidal action … pre-emergence” value in assay [1] was “very good herbicidal action”. In addition, the “herbicidal action … post-emergence” value in assay [2] was “very good herbicidal action”. For the same molecule, the “herbicidal action … for rice cultivation” value in assay [3] is reported as “good herbicidal action”.
Take `CC(C)(C#N)c1nc(N)nc(NC(CCc2ccccc2)C2CC2)n1` (stereo not drawn) [Example 9-4]: the “herbicidal action … pre-emergence” value in assay [1] is given as “very good herbicidal action”. Besides, in assay [2], the “herbicidal action … post-emergence” value is “very good herbicidal action”. Also, the “herbicidal action … for rice cultivation” value in assay [3] was “good herbicidal action”.
With `COc1cccc(CCC(Nc2nc(N)nc(C(C)(C)F)n2)C2CCC2)c1` (stereo not drawn) [Example 4-24], in assay [1], the “herbicidal action … pre-emergence” value was “very good herbicidal action”. Also, the “herbicidal action … post-emergence” value in assay [2] is reported as “very good herbicidal action”. Also, the “herbicidal action … for rice cultivation” value in assay [3] is on record as “good herbicidal action”.
In the case of `Cc1cccc(CCC(Nc2nc(N)nc(C(C)(C)F)n2)C2CCC2)c1` (stereo not drawn) [Example 4-15], in assay [1], the “herbicidal action … pre-emergence” value is given as “very good herbicidal action”. In addition, in assay [2], the “herbicidal action … post-emergence” value is reported as “very good herbicidal action”. For the same molecule, the “herbicidal action … for rice cultivation” value in assay [3] is “good herbicidal action”.

These data come from patent US20030162661A1, “2,4-Diamino-1,3,5-triazines, their preparation, and their use as herbicides and plant growth regulators” (priority 1998, published 2003).
